Results on 12 compounds are retold here after patent publication US20110015371A1 (Vertex Pharmaceuticals Incorporated, priority 1994, published 2011).

Non-standard residues stand in square brackets, D forms with d. Residues, ends and D or L forms follow the SMILES beside them. Pip = O=C(O)[C@@H]1CCCCN1

Data set [1] deals with Human Peripheral Blood Mononuclear Cells (PBMC) or Enriched Adherent Mononuclear Cells. Nature of the data set: Cell assay: IL-1β assay with human PBMC or enriched adherent mononuclear cells. The conditions noted are these: Homo sapiens, PBMC, LPS-stimulated cells, mature IL-1β in supernatant by ELISA. Type of data set: cell-based. Summed up: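 Human PBMC (suspension at 6×10^6 cells/ml) or adherent monocytes enriched by 1 h plating (2.5−3.0×10^5 cells/well) were stimulated with 5 ng/ml LPS (final) plus compound (5-6 dilutions, 0.1% DMSO final) for 16-18 hr at 37° C. Mature IL-1β in supernatants quantified by ELISA; duplicate cultures, duplicate ELISAs.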
(In general: An ELISA detects its analyte on a solid surface through an enzyme-linked reagent.)

The target of data set [2] is T1, ICE (Homo sapiens, UniProt P29466).
T1 sequence (P29466 120-297 limits assumed): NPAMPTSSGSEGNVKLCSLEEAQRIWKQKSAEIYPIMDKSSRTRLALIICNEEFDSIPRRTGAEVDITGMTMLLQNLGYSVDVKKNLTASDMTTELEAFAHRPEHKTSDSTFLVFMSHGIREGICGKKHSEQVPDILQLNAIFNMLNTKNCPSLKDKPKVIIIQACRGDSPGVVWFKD
T1 sequence (P29466 317-404 limits assumed): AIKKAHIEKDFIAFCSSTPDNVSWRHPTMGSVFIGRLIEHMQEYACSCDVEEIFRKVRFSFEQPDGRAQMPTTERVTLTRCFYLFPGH
The experiment in a line: Enzyme assay with UV-visible substrate (Succinyl-Tyr-Val-Ala-Asp-pNitroanilide). Type of data set: biochemical. Summed up:
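Enzyme preincubated with inhibitor in DMSO for 15 min at room temperature, then Succinyl-Tyr-Val-Ala-Asp-pNitroanilide added. pNA release followed at 405-603 nm, 37° C, over 20 minutes; rates (mOD/min) from linear fits. Ki and inhibition mode from fitting rates at varying inhibitor concentrations to standard kinetic equations.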

For data set [3], the target named is T1, ICE. Nature of the data set: Enzyme assay with fluorescent substrate (Acetyl-Tyr-Val-Ala-Asp-AMC). Type of data set: biochemical. The conditions noted are these: Example 2 table, read-out: Fluorescence Ki. Here is the method: 2. Enzyme Assay with Fluorescent Substrate
This assay is run essentially according to Thornberry et al. (Nature 356: 768-774 (1992)), using substrate 17 referenced in that article. The substrate is: Acetyl-Tyr-Val-Ala-Asp-amino-4-methylcoumarin (AMC). The following components are mixed:
The assay is run in a 96 well microtiter plate. Buffer and ICE are added to the wells. The components are left to incubate at 37° C. for 15 minutes in a temperature-controlled wellplate. After the 15 minute incubation, the reaction is started by adding substrate directly to the wells and the reaction is monitored @37° C. for 30 minutes by following the release of the AMC fluorophore using an excitation wavelength for 380 nm and an emission wavelength of 460 nm. A linear fit of the data for each well is performed and a rate is determined in fluorescence units per second.
For determination of enzyme inhibition constants (Ki) or the mode of inhibition (competitive, uncompetitive or noncompetitive), the rate data determined in the enzyme assays at varying inhibitor concentrations are computer-fit to standard enzyme kinetic equations (see I. H. Segel, Enzyme Kinetics, Wiley-Interscience, 1975).

`O=C[C@H](CC(=O)O)NC(=O)[C@@H]1CCCN1C(=O)c1nc(CCCc2ccc(O)cc2)c[nH]1` [Compound 21f, (3S)3-{N-[4-[3-(4-Hydroxyphenyl)propyl]imidazole-2-carbonyl]-L-prolinyl}amino-4-oxobutanoic acid]: the melting point was in the range of 114 to 118 °C. In addition, inhibition in data set [1] (Example 4 table) was half-maximal at 2.9 µM (IC50).
The compound `C[C@H](NC(=O)c1cnc(CCc2ccc(C(F)(F)F)cc2)[nH]1)C(=O)N[C@H](C=O)CC(=O)O` [Compound 33b, (3S)3-{N-[2-(2-[4-Trifluoromethylphenyl]ethyl)imidazole-4-carbonyl]-L-alaninyl}-amino-4-oxobutanoic acid] returned a melting point of 120 to 124 °C. For the same compound, affinity in data set [2] (Example 2 table) was put at a Ki of 10 µM. The compound also yielded a Ki in data set [2] (Example 4 table) of 10 µM. For the same compound, the IC50 in data set [1] (Example 2 table) was over 30 µM. Also, in data set [1] (Example 4 table), the concentration for half-maximal inhibition (IC50) was over 30 µM.
In the case of `C[C@H](NC(=O)c1ccc(Cc2ccccc2)[nH]1)C(=O)N[C@H](C=O)CC(=O)O` [Compound 36b, (3S)3-[N-(5-Benzylpyrrole-2-carbonyl)-L-alaninyl]amino-4-oxobutanoic acid], the melting point lay in the range of 109 to 112 °C. In data set [1] (Example 4 table), this compound returned an IC50 of 17 µM.
For `O=C[C@H](CC(=O)O)NC(=O)[C@@H]1CCCN2CCC[C@H](NC(=O)CCc3ccccc3)C(=O)N12` [Compound 47b, [3S,(1S,9S)]3-(Octahydro-10-oxo-9-(3-phenylpropionylamino)-6H-pyridazino-[1,2-a][1,2]diazepine-1-carboxamido)-4-oxobutanoic acid], the melting point lay within 87 to 90 °C. Besides, the Ki in data set [2] (Example 4 table) worked out at 0.027 µM. The IC50 in data set [1] (Example 4 table) turned out to be 1.8 µM.
Compound `CCCCc1ccc(NC(=O)CCc2ccccc2)c(=O)n1CC(=O)N[C@H](C=O)CC(=O)O` [Compound 54d, 3(S)3-(6-Butyl-1,2-dihydro-2-oxo-3-(3-phenylpropionyl)amino-1-pyridyl)acetylamino-4-oxobutanoic acid] had a melting point of 120 to 125 °C. This compound registered a Ki in data set [2] (Example 4 table) of 1 µM.
Turning to `Cc1ccc(NC(=O)CCc2ccccc2)c(=O)n1CC(=O)N[C@H](C=O)CC(=O)O` [Compound 54e, 3(S)3-(1,2-Dihydro-6-methyl-2-oxo-3-(3-phenylpropionyl)amino-1-pyridyl)acetylamino-4-oxobutanoic acid], the melting point was in the range of 129 to 138 °C. In addition, in data set [2] (Example 4 table), the Ki is 3.5 µM.
With `O=C[C@H](CC(=O)O)NC(=O)Cn1cccc(NC(=O)CCc2ccccc2)c1=O` [Compound 54g, 3(S)3-(1,2-Dihydro-2-oxo-3-(3-phenylpropionyl)amino-1-pyridyl)acetylamino-4-oxobutanoic acid], the melting point is 140 to 145 °C (dec.). The affinity in data set [2] (Example 2 table), expressed as Ki, was 4.8 µM. Also, the affinity in data set [2] (Example 4 table) corresponds to a Ki of 4.8 µM. Also, the IC50 in data set [1] (Example 4 table) was over 20 µM.
With `O=C[C@H](CC(=O)O)NC(=O)Cn1c(Cc2ccccc2)ccc(NS(=O)(=O)CCc2ccccc2)c1=O` [Compound 54j, 3(S)3-(6-Benzyl-1,2-dihydro-2-oxo-3-(2-phenylethane-sulphonyl)amino-1-pydridyl)acetylamino-4-oxobutanoic acid], the melting point lay in the range of 102 to 105 °C. Further, in data set [2] (Example 4 table), affinity was put at a Ki of 0.28 µM. The compound further gave an IC50 in data set [1] (Example 6 table) of 10 µM.
On to `O=C[C@H](CC(=O)O)NC(=O)Cn1c(Cc2ccccc2)ccc(NC(=O)OCCc2ccccc2)c1=O` [Compound 54k, 3(S)3-(6-Benzyl-1,2-dihydro-2-oxo-3-(2-phenylethoxy)carbonylamino-1-pyridyl)acetylamino-4-oxobutanoic acid], for which the melting point lay within 84 to 86 °C. For the same compound, affinity in data set [2] (Example 4 table) was put at a Ki of 0.085 µM. The compound further displayed a 50% inhibitory concentration (IC50) in data set [1] (Example 6 table) of 6.6 µM.
Consider `O=C(O)CC(NC(=O)Cn1c(Cc2ccccc2)ccc(NC(=O)CCc2ccccc2)c1=O)C(=O)COC(=O)c1c(Cl)cccc1Cl` (stereo not shown) [Compound 57b, N-2-(6-Benzyl-1,2-dihydro-2-oxo-3-(3-phenylpropionyl)amino-1-pyridyl)acetyl-3-amino-5-(2,6-dichloro-benzoyloxy)-4-oxo-pentanoic acid], for which the melting point is 116 to 120 °C (dec.). The compound also displayed an IC50 in data set [1] (Example 6 table) of 2.2 µM.
On to `O=C(O)C[C@H](NC(=O)[C@@H]1CCCN2C(=O)CC[C@H](NC(=O)CCc3ccccc3)C(=O)N12)C(=O)CSCc1ccccc1Cl` [Compound 125b, [3S(1S,9S)]-3-(6,10-dioxo-1,2,3,4,7,8,9,10-octahydro)-9-(3-phenylpropionyl-amino)-6H-pyridazine[1,2-a][1,2]diazepine-1-carboxamido-5-(2-chlorophenyl-methylthio)-4-oxopentanoic acid], for which the melting point lay within 76 to 80 °C. Further, the affinity in data set [2] (Example 6 table), expressed as Ki, was 0.06 µM. Also, in data set [1] (Example 6 table), the IC50 came out at 0.3 µM.
For `CC(=O)N[C@@H](Cc1ccc(O)cc1)C(=O)N[C@H](C(=O)N1CCCC[C@H]1C(=O)N[C@H](C=O)CC(=O)O)C(C)C` [H, N-(N-Acetyl-tyrosinyl-valinyl-pipecolyl)-3-amino-4-oxobutanoic acid] (Ac-YV[Pip]D-aldehyde), the figures for the Ki in data set [2] (Example 2 table) and in data set [3] were 0.023 µM and 0.0047 µM, respectively. Further, the 50% inhibitory concentration (IC50) in data set [1] (Example 2 table) lay within 6 to 11 µM.

Usually melting point stands for the temperature of the solid-liquid transition. The term IC50 denotes the midpoint of a concentration-inhibition curve. The term Ki denotes a measure of affinity in units of concentration, obtained from inhibition or displacement.
